In general, inhibition refers to the relative decrease from the control value, in per cent.

Among the data in publication doi:10.1101/2021.09.30.462449v1 (biorxiv, 2021) are inhibition values, retold here.

Some targets named below: ACVR2A (Homo sapiens, UniProt P27037); BMPR1A (ALK3) (Homo sapiens, UniProt P36894); CAMK2G (CaMKII gamma) (Homo sapiens, UniProt Q13555); CDK13/cyclin K (Homo sapiens, UniProt Q14004); CDK2/cyclin A1 (Homo sapiens, UniProt P24941); CDK9 (Inactive) (Homo sapiens, UniProt P50750); CDK9/cyclin K (Homo sapiens, UniProt P50750); DAPK2 (Homo sapiens, UniProt Q9UIK4); DDR1 (Homo sapiens, UniProt Q08345); DDR2 N456S (Homo sapiens, UniProt Q16832, N456S); KIT A829P (Homo sapiens, UniProt P10721, A829P); MAP2K2 (MEK2) (Homo sapiens, UniProt P36507); MAP2K5 (MEK5) (Homo sapiens, UniProt Q13163); MAP3K3 (MEKK3) (Homo sapiens, UniProt Q99759); NEK8 (Homo sapiens, UniProt Q86SG6); PKMYT1 (Homo sapiens, UniProt Q99640); RET V804M (Homo sapiens, UniProt P07949, V804M); STK16 (PKL12) (Homo sapiens, UniProt O75716); TEK (TIE2) Y1108F (Homo sapiens, UniProt Q02763, Y1108F); WNK1 (Homo sapiens, UniProt Q9H4A3).

What all share (assay): biochemical
Details in all cases: read-out: % inhibition mean (Lanthascreen)
(Time-resolved FRET reads energy transfer from a long-lived donor to a nearby acceptor.)

The target of experiment [1] is MAP2K1 (MEK1) S218D S222D (Homo sapiens, UniProt Q02750, S218D/S222D).

Sequence of WNK1 (Q9H4A3 whole entry): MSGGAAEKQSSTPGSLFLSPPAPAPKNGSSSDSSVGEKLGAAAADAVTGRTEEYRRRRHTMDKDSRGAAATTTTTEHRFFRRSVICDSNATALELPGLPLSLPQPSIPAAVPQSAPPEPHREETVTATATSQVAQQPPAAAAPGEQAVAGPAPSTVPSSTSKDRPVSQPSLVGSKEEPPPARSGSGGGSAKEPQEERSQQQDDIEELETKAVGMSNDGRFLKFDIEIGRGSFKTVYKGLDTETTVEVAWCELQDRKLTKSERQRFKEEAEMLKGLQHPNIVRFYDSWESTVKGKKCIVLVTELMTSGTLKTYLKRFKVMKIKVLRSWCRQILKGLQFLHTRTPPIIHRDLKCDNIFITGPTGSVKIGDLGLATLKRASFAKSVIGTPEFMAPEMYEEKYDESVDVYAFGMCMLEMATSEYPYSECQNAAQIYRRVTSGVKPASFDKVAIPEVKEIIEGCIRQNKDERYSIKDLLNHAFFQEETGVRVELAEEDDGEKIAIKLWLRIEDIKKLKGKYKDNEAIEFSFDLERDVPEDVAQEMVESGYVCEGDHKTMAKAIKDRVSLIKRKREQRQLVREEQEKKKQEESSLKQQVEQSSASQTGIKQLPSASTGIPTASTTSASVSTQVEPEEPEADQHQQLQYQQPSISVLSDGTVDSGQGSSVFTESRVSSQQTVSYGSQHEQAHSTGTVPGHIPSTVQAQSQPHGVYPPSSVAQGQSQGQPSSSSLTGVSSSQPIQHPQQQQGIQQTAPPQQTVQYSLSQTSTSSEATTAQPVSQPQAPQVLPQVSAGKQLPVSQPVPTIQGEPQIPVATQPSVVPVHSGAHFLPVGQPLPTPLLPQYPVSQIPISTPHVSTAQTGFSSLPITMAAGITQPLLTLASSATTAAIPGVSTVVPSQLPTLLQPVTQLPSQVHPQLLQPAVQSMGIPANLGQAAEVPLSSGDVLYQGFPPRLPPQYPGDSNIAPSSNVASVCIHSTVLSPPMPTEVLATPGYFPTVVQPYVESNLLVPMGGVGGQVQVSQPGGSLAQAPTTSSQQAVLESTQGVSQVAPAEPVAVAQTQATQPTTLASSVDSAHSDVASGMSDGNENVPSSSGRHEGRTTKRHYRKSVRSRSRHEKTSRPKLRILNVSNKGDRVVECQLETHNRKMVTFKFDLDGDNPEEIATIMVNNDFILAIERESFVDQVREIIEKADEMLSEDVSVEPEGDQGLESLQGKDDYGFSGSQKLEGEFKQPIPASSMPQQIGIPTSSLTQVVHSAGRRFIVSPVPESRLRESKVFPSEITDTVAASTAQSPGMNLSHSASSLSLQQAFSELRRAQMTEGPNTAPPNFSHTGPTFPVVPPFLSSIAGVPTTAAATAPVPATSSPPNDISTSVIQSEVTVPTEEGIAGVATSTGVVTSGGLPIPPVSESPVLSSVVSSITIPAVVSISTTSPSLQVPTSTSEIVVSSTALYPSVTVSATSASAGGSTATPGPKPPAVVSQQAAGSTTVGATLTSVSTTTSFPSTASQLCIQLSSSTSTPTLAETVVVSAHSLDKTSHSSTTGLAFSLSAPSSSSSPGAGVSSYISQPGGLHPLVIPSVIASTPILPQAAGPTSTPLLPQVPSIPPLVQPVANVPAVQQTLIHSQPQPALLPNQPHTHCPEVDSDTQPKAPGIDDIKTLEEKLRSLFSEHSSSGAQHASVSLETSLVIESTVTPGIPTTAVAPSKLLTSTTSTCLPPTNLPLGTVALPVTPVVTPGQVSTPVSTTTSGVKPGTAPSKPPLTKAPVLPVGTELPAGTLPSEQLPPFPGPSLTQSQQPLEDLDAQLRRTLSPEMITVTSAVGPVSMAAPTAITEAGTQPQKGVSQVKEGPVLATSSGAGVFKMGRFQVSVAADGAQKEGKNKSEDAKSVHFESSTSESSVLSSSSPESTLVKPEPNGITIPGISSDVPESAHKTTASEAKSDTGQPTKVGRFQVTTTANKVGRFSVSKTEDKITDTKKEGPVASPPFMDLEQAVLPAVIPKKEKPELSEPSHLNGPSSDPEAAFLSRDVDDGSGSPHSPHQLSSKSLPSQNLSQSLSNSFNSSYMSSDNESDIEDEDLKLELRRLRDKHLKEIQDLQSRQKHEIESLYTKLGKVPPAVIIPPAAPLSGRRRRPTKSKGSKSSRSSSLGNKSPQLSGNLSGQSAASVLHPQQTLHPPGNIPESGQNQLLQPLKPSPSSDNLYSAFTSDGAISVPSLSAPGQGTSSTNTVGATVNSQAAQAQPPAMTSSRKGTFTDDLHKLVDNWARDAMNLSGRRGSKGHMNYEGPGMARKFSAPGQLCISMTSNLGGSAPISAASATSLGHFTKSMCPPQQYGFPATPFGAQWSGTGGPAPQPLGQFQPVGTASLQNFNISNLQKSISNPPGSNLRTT
Sequence of DDR1 (Q08345 whole entry): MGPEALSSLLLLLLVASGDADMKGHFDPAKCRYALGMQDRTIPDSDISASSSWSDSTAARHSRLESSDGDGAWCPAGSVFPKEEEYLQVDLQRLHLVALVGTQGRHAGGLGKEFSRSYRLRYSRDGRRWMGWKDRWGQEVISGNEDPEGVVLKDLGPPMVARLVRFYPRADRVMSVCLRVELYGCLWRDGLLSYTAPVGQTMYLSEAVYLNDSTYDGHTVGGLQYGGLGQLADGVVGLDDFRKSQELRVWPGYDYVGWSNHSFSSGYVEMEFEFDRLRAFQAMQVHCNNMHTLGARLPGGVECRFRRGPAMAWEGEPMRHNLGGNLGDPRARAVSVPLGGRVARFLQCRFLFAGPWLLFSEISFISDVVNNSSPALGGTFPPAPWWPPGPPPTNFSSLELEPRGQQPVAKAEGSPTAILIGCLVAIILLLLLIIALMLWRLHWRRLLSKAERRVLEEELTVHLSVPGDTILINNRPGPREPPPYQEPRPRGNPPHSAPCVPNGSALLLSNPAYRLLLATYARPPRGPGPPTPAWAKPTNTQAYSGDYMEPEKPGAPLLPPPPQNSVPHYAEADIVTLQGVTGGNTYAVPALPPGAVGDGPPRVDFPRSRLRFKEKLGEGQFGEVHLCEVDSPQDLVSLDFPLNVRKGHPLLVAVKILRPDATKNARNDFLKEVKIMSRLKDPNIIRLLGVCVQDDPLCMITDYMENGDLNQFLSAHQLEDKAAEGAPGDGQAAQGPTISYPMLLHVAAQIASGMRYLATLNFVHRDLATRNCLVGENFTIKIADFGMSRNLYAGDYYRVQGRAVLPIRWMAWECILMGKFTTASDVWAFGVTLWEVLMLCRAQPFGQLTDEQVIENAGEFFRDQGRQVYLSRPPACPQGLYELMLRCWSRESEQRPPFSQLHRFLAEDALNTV
Sequence of PKMYT1 (Q99640 whole entry): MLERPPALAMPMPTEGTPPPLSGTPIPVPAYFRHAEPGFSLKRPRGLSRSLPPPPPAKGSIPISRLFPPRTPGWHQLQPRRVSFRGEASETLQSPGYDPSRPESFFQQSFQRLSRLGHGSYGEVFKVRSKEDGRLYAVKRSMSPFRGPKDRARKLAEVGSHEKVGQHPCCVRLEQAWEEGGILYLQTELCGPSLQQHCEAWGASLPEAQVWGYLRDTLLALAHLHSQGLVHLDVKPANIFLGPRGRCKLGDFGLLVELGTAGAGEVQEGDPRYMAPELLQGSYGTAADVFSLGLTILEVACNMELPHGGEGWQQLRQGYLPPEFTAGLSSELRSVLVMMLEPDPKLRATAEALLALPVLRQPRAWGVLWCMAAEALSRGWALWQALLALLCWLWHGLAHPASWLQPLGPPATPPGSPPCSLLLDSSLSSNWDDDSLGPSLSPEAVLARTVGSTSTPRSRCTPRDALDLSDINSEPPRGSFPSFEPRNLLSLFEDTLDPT
Sequence of STK16 (PKL12) (O75716 whole entry): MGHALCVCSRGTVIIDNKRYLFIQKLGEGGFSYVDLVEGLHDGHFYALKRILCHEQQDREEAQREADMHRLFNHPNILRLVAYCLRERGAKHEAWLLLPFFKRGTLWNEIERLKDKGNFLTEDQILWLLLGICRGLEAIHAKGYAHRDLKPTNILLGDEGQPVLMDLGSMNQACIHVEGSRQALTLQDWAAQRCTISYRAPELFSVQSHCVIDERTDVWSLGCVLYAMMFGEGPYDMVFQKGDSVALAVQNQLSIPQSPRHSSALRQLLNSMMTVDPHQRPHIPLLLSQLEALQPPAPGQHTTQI
Sequence of NEK8 (Q86SG6 whole entry): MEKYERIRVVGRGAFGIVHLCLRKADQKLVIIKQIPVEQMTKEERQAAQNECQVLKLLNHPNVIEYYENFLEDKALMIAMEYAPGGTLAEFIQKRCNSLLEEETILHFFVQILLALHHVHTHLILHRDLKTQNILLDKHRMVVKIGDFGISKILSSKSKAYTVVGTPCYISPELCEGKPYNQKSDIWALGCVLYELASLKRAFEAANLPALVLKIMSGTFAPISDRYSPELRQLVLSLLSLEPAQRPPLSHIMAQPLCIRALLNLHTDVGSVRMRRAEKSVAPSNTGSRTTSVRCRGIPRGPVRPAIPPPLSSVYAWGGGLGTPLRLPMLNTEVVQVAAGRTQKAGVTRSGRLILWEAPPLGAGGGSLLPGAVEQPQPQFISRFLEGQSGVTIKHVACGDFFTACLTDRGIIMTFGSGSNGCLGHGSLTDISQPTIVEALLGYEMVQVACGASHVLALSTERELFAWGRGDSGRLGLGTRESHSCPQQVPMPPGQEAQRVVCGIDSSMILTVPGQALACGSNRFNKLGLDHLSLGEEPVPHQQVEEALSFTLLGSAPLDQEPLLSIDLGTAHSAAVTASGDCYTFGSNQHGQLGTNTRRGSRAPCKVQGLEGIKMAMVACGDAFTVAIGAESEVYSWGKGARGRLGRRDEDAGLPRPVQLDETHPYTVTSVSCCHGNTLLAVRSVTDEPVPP

With `COc1ccc2nc3cc(Cl)ccc3c(Nc3cc(CN4CCCC4)c(O)c(CN4CCCC4)c3)c2n1` [Pyronaridine, 4-[(7-Chloro-2-methoxybenzo[b][1,5]naphthyridin-10-yl)amino]-2,6-bis(1-pyrrolidinylmethyl)phenol phosphate (1:4)], the inhibition at 1 µM at ACVR2A is -6%; at BMPR1A (ALK3), 10%; at CAMK2G (CaMKII gamma), -1%; at CDK13/cyclin K, -13%; on CDK2/cyclin A1 it was 5%; at CDK9 (Inactive), -10%. Further, the inhibition at 1 µM on CDK9/cyclin K is 5%; at DAPK2, -6%; at DDR1, -2%; on DDR2 N456S it was 17%; on KIT A829P it was -9%; in [1] it was 3%. Moreover, the inhibition at 1 µM is -3% at MAP2K2 (MEK2); 1% at MAP2K5 (MEK5); -3% on MAP3K3 (MEKK3); 0% on NEK8; 1% on PKMYT1; -1% at RET V804M. Besides, the inhibition at 1 µM on STK16 (PKL12) was 5%; on TEK (TIE2) Y1108F, -2%; on WNK1, 4%.
